Test results: US20220062250A1, “COMBINATION OF A SK2 INHIBITOR AND AN INHIBITOR OF A CHECKPOINT PATHWAY, USES AND PHARMACEUTICAL COMPOSITIONS THEREOF” (Apogee Biotechnology Corporation, priority 2019, published 2022)

Tests used:
[1] = given intravenously every 2 weeks; cited from earlier work
[2] = system: E0771; test: Surface expression of calreticulin by flow cytometry, E0771; assay type: cell-based; conditions: E0771 (Breast); 40 μM ABC294640, 24 hours; relative to DMSO control = 1.0; logarithmic scale
Method: (§1) One indicator that tumor cells are undergoing immunogenic cell death (ICD) is increased expression of calreticulin on the surface of the cells. Calreticulin is normally expressed in the endoplasmic reticulum (ER) of cells; however, when cells are treated with an agent that promotes ER stress, calreticulin expression can be observed on the external surface of the cells. Promotion of ER stress is a typical mechanism for inducing ICD, and therefore measuring the surface expression of calreticulin is an established method for determining if a compound causes ICD. The effects of ABC294640, an inhibitor of sphingosine kinase-2, on the surface expression of calreticulin in several different types of tumor cells were examined. […] The cells were then incubated with a fluorescently labeled antibody that selectively binds to calreticulin, washed and then analyzed by flow cytometry to quantify the amount of surface calreticulin on many individual cells. The resulting data is analyzed by determining the geometric mean of the fluorescence intensity for the population of cells using algorithms well known in the field of flow cytometry. […] The geometric mean of the fluorescence intensity for cell samples treated with DMSO was expressed as 1.0 and the data for cell samples treated with ABC294640 were expressed relative to the DMSO control. […]

[3] = system: B16 tumors; test: B16 tumor model, ABC294640 in combination with anti-PD-L1 antibody (Example 10); assay type: in vivo, mice; conditions: B16 tumors ≥300 mm^3 at randomization (Day 1); ABC294640 50 mg/kg oral gavage 5 days/week; anti-PD-L1 antibody 200 μg/mouse i.p. Days 1, 3, 5 and 7; Vehicle 8.5
Method: The combined effects of treating tumor-bearing mice with ABC294640 and anti-PD-L1 antibody were examined in the B16 tumor model. Anti-mouse PD-L1 (catalog number BE0101) antibody was purchased from BioXCell (West Lebanon, N.H.). Mice were injected with 100,000 B16 cells suspended in PBS into the right hind flank subcutaneously on Day 0 of the experiment. When the tumor reached a volume of ≥300 mm^3, mice were randomized into the following four treatment groups (n=5-6/group): Control (vehicle only); ABC294640 alone; anti-PD-L1 antibody alone; and ABC294640 in combination with anti-PD-L1 antibody. The day of randomization is noted as Day 1 of the experiment for each mouse. ABC294640 was suspended in vehicle (46.7% PEG, 46.7% saline and 6.6% ethanol) and dosed by oral gavage at 50 mg/kg 5 days/week until sacrifice. Anti-PD-L1 antibody was suspended in dilution buffer (BioXCell, catalog number IP0070) and administered by intraperitoneal (i.p.) injection at a dose of 200 μg/mouse on Days 1, 3, 5 and 7. The combination treatment group mice received antibody and ABC294640 treatments concomitantly on days when antibody was scheduled. Control group mice received oral vehicle and/or sterile PBS i.p. on all days that treated mice received either ABC294640 or antibody. Tumors were measured with digital calipers three times per week and volumes were calculated using the formula, (L×W^2)/2. […]

[4] = system: PAN02; test: Surface expression of calreticulin by flow cytometry, PAN02; assay type: cell-based; conditions: PAN02 (Pancreas); 40 μM ABC294640, 24 hours; relative to DMSO control = 1.0; logarithmic scale (2.0 = 10-fold increase)
Method: as §1

[5] = system: Lewis Lung carcinoma; test: Surface expression of calreticulin by flow cytometry, Lewis Lung carcinoma; assay type: cell-based, murine; conditions: 40 μM ABC294640, 24 hours, relative to DMSO control = 1.0, logarithmic scale
Method: as §1

[6] = system: LLC tumors; test: LLC tumor model, ABC294640 in combination with anti-CTLA4 antibody (Example 9); assay type: in vivo, mice
Method: The combined effects of treating tumor-bearing mice with ABC294640 and anti-CTLA41 antibody were examined in the LLC tumor model. Anti-mouse CTLA-4 (catalog number BE0131) antibody was purchased from BioXCell (West Lebanon, N.H.). Mice were injected with 1,000,000 LLC cells suspended in PBS into the right hind flank subcutaneously on Day 0 of the experiment. Mice were randomized On Day 3 of the experiment into the following four treatment groups (n=5/group): Control (vehicle only); ABC294640 alone; anti-CTLA4 antibody alone; and ABC294640 in combination with anti-CTLA4 antibody. ABC294640 was suspended in vehicle (46.7% PEG, 46.7% saline and 6.6% ethanol) and dosed by oral gavage at 50 mg/kg 5 days/week (i.e. days 3-7, 10-14, 17-21, etc.) until sacrifice. Anti-CTLA4 antibody was suspended in dilution buffer (BioXCell, catalog number IP0070) and administered by intraperitoneal (i.p.) injection at a dose of 200 μg/mouse on Days 3, 6, 10, 13, 17 and 20. The combination treatment group mice received antibody and ABC294640 treatments concomitantly on days when antibody was scheduled. Control group mice received oral vehicle and/or sterile PBS i.p. on all days that treated mice received either ABC294640 or antibody. Tumors were measured with digital calipers three times per week and volumes were calculated using the formula, (L×W^2)/2. Mice were euthanized when tumor volumes reached ≥3,000 mm^3. […] Tumors in the Control mice grew progressively after a lag of approximately 7 days. On Day 21, the average tumor volumes for the Control, ABC294640 alone, anti-CTLA4 antibody alone, and combination treatment groups were 4622±548, 3197±914, 3029±675 and 1274±336 mm^3, respectively. […] As directed by the IACUC protocol, each mouse was sacrificed when its tumor volume reached 3,000 mm^3. […] The combination of ABC294640 plus anti-CTLA4 antibody increased median survival to >26 days, and 60% of these mice survived to Day 26.

[7] = system: TRAMP-C2; test: Surface expression of calreticulin by flow cytometry, TRAMP-C2; assay type: cell-based; conditions: TRAMP-C2 (Prostate); 40 μM ABC294640, 24 hours; relative to DMSO control = 1.0; logarithmic scale
Method: as §1

[8] = system: Neuro-2a; test: Surface expression of calreticulin by flow cytometry, Neuro-2a; assay type: cell-based, murine; conditions: Neuro-2a (Neuroblastoma); 40 μM ABC294640, 24 hours; relative to DMSO control = 1.0; logarithmic scale
Method: as §1

[9] = system: B16-F10; test: Surface expression of calreticulin by flow cytometry, B16-F10; assay type: cell-based, murine; conditions: B16-F10 (Melanoma); 40 μM ABC294640, 24 hours; relative to DMSO control = 1.0; logarithmic scale
Method: as §1

[10] = system: B16 tumors; test: B16 tumor model, ABC294640 in combination with anti-PD-1 antibody (Example 8); assay type: in vivo, C57BL/6 mice
Method: Agents that induce ICD may enhance the antitumor activity of checkpoint antibodies. […] Anti-mouse PD-1 (Catalog number BE0146) antibody was purchased from BioXCell (West Lebanon, N.H.). C57BL/6 mice were injected with 100,000 B16 cells suspended in PBS into the right hind flank subcutaneously on Day 0 of the experiment. Mice were randomized on Day 3 of the experiment into the following four treatment groups (n=10/group): Control (vehicle only); ABC294640 alone; anti-PD-1 antibody alone; and ABC294640 in combination with anti-PD-1 antibody. ABC294640 was suspended in vehicle (46.7% PEG, 46.7% saline and 6.6% ethanol) and dosed by oral gavage at 50 mg/kg 5 days/week (i.e. days 3-7, 10-14, 17-21, etc.) until sacrifice. Anti-PD-1 antibody was suspended in sterile PBS, and administered by intraperitoneal (i.p.) injection at a dose of 200 μg/mouse on Days 3, 6 and 10. The combination treatment group mice received antibody and ABC294640 treatments concomitantly on days when antibody was scheduled. Control group mice received oral vehicle and/or sterile PBS i.p. on all days that treated mice received either ABC294640 or antibody. Tumors were measured with digital calipers three times per week and volumes were calculated using the formula, (L×W^2)/2. Mice were euthanized when tumor volumes reached ≥3,000 mm^3. […] Tumors in the Control mice grew very aggressively after a lag of approximately 10 days. On Day 19, the average tumor volumes for the Control, ABC294640 alone, anti-PD-1 antibody alone, and combination treatment groups were 1702±373, 892±364, 783±265 and 190±114 mm^3, respectively. […] As directed by the IACUC protocol, each mouse was sacrificed when its tumor volume reached 3,000 mm^3. […] Treatment with ABC294640 alone provided a median survival of 24 days and 30% of the mice were alive on Day 56 when the experiment was terminated (p=0.009).

Molecule	tolerated dose [1]	Surface calreticulin expression (Geometric mean of fluorescence intensity) [2]	median survival [3]	Surface calreticulin expression (Geometric mean of fluorescence intensity) [4]	Surface calreticulin expression (Geometric mean of fluorescence intensity) [5]	median survival ([6]; LLC tumor-bearing mice, sacrificed at tumor volume 3,000 mm^3, Control 19 days)	average tumor volume ([6]; LLC tumors, Day 21, ABC294640 50 mg/kg oral gavage 5 days/week, anti-CTLA4 antibody 200 μg/mouse i.p. Days 3, 6, 10, 13, 17 and 20, Control 4622±548)	growth of LLC lung tumors (FIG. 8) ([6]; in words)	survival of mice bearing LLC tumors (FIG. 9) ([6]; in words)	Surface calreticulin expression (Geometric mean of fluorescence intensity) [7]	Surface calreticulin expression (Geometric mean of fluorescence intensity) [8]	Surface calreticulin expression (Geometric mean of fluorescence intensity) [9]	median survival ([10]; B16 tumor-bearing mice, sacrificed at tumor volume 3,000 mm^3, Control 21 days)	mice alive on Day 56 ([10]; B16 tumor-bearing mice, experiment terminated Day 56, all Control animals sacrificed by Day 29)	average tumor volume ([10]; B16 tumors, Day 19, ABC294640 50 mg/kg oral gavage 5 days/week, anti-PD-1 antibody 200 μg/mouse i.p. Days 3, 6 and 10, Control 1702±373)	growth of B16 melanoma tumors (FIG. 6) ([10]; in words)	survival of mice bearing B16 melanoma tumors (FIG. 7) ([10]; in words)
nivolumab	up to 10 mg/kg	–	–	–	–	–	–	–	–	–	–	–	–	–	–	–	–
O=C(NCc1ccncc1)C12CC3CC(C1)CC(c1ccc(Cl)cc1)(C3)C2 [ABC294640, 3-(4-chlorophenyl)-adamantane-1-carboxylic acid (pyridin-4-ylmethyl)amide]	–	1.46	10 days	2.31	3.0	22 days	3197±914 mm^3	partially inhibited	slightly prolonged	3.64	3.0	2.7	24 days	30%	892±364 mm^3	partially inhibited	slightly prolonged
